Legend:
[1] = target: Beta-2 adrenergic receptor (Homo sapiens) (UniProt P07550); details: Compound concentration 10.0 uM
[2] = target: T1, Sodium-dependent dopamine transporter (Homo sapiens, UniProt Q01959); details: Compound concentration 10.0 uM
Rattus norvegicus = species: Rattus norvegicus; details: Compound concentration 10.0 uM
[3] = target: Alpha-2C adrenergic receptor (Homo sapiens) (UniProt P18825); details: Compound concentration 10.0 uM
[4] = target: Histamine H1 receptor (Homo sapiens) (UniProt P35367); details: Compound concentration 10.0 uM
Mu-type opioid receptor = Mu-type opioid receptor (Homo sapiens, UniProt P35372); details: Compound concentration 10.0 uM
Mu-type opioid receptor, sequence (P35372 whole entry): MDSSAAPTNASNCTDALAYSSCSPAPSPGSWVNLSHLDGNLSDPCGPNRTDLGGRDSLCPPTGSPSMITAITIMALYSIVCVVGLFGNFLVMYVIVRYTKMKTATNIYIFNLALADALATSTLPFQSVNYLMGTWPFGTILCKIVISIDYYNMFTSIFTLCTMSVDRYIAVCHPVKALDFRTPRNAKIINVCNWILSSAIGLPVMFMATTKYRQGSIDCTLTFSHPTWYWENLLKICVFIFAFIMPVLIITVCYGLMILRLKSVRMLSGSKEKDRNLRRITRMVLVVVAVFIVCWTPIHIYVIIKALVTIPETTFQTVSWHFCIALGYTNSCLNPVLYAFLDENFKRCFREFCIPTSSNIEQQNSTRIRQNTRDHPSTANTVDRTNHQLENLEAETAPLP

[5] = target: Alpha-1D adrenergic receptor (Homo sapiens) (UniProt P25100); details: Compound concentration 10.0 uM
[6] = target: T2, 5-hydroxytryptamine receptor 5A (Homo sapiens, UniProt P47898); details: Compound concentration 10.0 uM
T2 sequence (P47898 whole entry): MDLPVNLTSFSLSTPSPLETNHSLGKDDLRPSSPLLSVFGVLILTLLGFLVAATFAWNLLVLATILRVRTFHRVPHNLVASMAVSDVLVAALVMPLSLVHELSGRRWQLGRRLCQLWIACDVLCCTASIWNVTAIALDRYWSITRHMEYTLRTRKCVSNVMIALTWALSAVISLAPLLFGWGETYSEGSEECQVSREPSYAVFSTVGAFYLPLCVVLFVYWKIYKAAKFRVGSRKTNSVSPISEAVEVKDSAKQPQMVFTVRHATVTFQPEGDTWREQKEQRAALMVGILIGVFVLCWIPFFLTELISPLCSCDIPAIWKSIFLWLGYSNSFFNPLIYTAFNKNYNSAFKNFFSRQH

[7] = target: 5-hydroxytryptamine receptor 2A (Homo sapiens) (UniProt P28223); details: Compound concentration 10.0 uM
[8] = target: Muscarinic acetylcholine receptor M3 (Homo sapiens) (UniProt P20309); details: Compound concentration 10.0 uM
[9] = target: Histamine H2 receptor (Homo sapiens) (UniProt P25021); details: Compound concentration 10.0 uM
[10] = target: 5-hydroxytryptamine receptor 1A (Homo sapiens, UniProt P08908); assay: GPCRScan assay: inhibition of 5-HT1A; design: radioligand conc. used [nm] 0.5 – 1.0, parental cells stable CHO
5-hydroxytryptamine receptor 1A, sequence (P08908 whole entry): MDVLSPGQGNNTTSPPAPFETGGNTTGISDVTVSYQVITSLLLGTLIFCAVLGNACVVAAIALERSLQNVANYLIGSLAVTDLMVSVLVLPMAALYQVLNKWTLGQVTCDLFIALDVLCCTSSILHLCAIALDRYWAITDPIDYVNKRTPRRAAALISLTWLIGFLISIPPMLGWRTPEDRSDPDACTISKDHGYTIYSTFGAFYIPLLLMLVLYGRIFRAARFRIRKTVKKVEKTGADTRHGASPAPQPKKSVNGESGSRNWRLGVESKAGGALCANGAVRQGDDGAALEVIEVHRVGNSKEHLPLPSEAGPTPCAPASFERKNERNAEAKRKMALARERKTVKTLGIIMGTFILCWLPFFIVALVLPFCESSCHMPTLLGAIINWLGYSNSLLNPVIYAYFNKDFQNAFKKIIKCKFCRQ

[11] = target: T1, Sodium-dependent dopamine transporter; assay: GPCRScan assay: inhibition of DAT; design: radioligand conc. used [nm] 3.6 – 16.0, parental cells stable HEK
[12] = target: D(1A) dopamine receptor (Homo sapiens) (UniProt P21728); details: Compound concentration 10.0 uM
D(1A) dopamine receptor (Homo sapiens), sequence (P21728 whole entry): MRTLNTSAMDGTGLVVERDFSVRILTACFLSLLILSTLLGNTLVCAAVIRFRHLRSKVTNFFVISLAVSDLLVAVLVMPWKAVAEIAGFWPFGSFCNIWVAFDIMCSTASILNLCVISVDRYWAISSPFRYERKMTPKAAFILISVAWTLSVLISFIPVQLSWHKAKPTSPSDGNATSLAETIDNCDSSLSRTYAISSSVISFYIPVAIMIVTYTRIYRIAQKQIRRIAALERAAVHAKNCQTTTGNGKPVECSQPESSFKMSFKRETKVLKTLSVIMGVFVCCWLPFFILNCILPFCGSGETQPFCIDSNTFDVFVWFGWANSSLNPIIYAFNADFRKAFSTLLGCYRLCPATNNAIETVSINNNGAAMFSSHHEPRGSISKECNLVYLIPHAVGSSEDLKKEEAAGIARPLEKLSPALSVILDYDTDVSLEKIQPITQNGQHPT

[13] = target: Alpha-1A adrenergic receptor (Homo sapiens) (UniProt P35348); details: Compound concentration 10.0 uM
[14] = target: T3, Delta-type opioid receptor (Homo sapiens, UniProt P41143); details: Compound concentration 10.0 uM
T3 sequence (P41143 whole entry): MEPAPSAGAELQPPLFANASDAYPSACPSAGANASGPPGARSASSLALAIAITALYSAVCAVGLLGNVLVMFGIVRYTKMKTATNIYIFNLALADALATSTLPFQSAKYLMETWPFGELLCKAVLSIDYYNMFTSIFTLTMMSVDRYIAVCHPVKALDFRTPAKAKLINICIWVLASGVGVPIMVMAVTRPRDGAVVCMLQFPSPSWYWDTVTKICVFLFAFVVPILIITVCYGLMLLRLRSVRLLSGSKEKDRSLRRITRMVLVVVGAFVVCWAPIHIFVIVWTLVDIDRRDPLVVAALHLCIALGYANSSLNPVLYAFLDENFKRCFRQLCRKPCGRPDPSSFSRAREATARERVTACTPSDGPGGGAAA

[15] = target: T4, Sodium-dependent noradrenaline transporter (Homo sapiens, UniProt P23975); details: Compound concentration 10.0 uM
T4 sequence (P23975 whole entry): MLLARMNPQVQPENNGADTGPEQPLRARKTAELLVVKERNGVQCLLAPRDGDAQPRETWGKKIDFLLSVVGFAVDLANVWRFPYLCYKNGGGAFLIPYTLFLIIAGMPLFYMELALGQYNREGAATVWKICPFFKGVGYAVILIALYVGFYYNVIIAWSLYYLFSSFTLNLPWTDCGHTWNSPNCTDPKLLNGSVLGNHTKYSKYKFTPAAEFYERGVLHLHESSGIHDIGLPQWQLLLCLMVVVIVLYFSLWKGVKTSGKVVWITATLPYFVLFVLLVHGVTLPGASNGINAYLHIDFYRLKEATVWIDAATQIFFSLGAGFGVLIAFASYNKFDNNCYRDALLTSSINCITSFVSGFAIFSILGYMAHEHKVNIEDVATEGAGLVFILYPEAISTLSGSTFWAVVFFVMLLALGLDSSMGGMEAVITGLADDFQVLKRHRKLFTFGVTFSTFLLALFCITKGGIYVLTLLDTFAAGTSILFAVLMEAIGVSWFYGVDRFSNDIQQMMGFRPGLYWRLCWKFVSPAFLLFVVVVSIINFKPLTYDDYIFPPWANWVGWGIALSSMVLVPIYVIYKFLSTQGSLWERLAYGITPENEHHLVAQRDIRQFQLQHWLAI

[16] = target: Kappa-type opioid receptor (Homo sapiens) (UniProt P41145); details: Compound concentration 10.0 uM
[17] = target: D(4) dopamine receptor (Homo sapiens) (UniProt P21917); details: Compound concentration 10.0 uM
[18] = target: 5-hydroxytryptamine receptor 1A (Homo sapiens) (UniProt P08908); details: Compound concentration 10.0 uM
5-hydroxytryptamine receptor 1A (Homo sapiens), sequence (P08908 whole entry): as the sequence (P08908 whole entry) above

[19] = target: 5-hydroxytryptamine receptor 2C (Homo sapiens) (UniProt P28335); details: Compound concentration 10.0 uM
[20] = target: D(1B) dopamine receptor (Homo sapiens) (UniProt P21918); details: Compound concentration 10.0 uM
[21] = target: 5-hydroxytryptamine receptor 7 (Homo sapiens) (UniProt P34969); details: Compound concentration 10.0 uM
[22] = target: Alpha-1B adrenergic receptor (Homo sapiens) (UniProt P35368); details: Compound concentration 10.0 uM
[23] = target: Muscarinic acetylcholine receptor M1 (Homo sapiens) (UniProt P11229); details: Compound concentration 10.0 uM
[24] = target: Beta-3 adrenergic receptor (Homo sapiens) (UniProt P13945); details: Compound concentration 10.0 uM
[25] = target: Muscarinic acetylcholine receptor M5 (Homo sapiens) (UniProt P08912); details: Compound concentration 10.0 uM
[26] = target: T5, Induced myeloid leukemia cell differentiation protein Mcl-1 (Homo sapiens, UniProt Q07820); assay: HTRF (MCL1)
[27] = target: T2, 5-hydroxytryptamine receptor 5A; assay: GPCRScan assay: inhibition of 5-HT5A; design: radioligand conc. used [nm] 2.0 - 3.3, parental cells Flp-In CHO
[28] = target: T5, Induced myeloid leukemia cell differentiation protein Mcl-1; assay: Caspase Glo MOLP-8 assay; assay type: functional, cell-based, MOLP8
[29] = target: Sigma non-opioid intracellular receptor 1 (Homo sapiens) (UniProt Q99720); details: Compound concentration 10.0 uM
[30] = target: Sodium-dependent serotonin transporter (Homo sapiens) (UniProt P31645); details: Compound concentration 10.0 uM
[31] = target: Beta-1 adrenergic receptor (Homo sapiens) (UniProt P08588); details: Compound concentration 10.0 uM
Beta-1 adrenergic receptor (Homo sapiens), sequence (P08588 whole entry, looked up): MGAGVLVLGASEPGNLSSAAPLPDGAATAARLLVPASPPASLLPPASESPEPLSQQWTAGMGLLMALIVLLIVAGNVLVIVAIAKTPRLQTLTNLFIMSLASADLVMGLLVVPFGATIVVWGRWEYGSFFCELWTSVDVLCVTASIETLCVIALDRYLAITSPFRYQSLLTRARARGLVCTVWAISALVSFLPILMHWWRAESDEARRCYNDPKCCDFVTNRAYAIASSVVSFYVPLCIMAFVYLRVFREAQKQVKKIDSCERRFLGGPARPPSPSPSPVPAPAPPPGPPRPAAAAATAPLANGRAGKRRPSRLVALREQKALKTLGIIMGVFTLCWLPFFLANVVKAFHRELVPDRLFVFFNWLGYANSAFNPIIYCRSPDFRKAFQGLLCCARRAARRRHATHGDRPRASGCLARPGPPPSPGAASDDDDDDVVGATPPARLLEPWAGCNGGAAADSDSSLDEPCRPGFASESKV

[32] = target: Alpha-2B adrenergic receptor (Homo sapiens) (UniProt P18089); details: Compound concentration 10.0 uM
Alpha-2B adrenergic receptor (Homo sapiens), sequence (P18089 whole entry): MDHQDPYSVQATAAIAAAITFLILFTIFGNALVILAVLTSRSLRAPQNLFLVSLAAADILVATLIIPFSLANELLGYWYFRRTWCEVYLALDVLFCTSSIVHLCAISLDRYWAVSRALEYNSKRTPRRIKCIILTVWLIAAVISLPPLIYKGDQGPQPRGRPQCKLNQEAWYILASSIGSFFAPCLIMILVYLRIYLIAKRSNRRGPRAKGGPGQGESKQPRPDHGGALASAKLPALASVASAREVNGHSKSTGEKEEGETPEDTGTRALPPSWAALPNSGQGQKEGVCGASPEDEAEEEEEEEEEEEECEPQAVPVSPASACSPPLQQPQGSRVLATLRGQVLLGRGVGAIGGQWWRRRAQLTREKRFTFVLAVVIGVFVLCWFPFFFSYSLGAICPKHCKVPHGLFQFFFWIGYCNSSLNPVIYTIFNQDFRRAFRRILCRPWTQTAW

[33] = target: 5-hydroxytryptamine receptor 2B (Homo sapiens) (UniProt P41595); details: Compound concentration 10.0 uM
[34] = target: 5-hydroxytryptamine receptor 3A (Homo sapiens) (UniProt P46098); details: Compound concentration 10.0 uM
[35] = target: 5-hydroxytryptamine receptor 1B (Homo sapiens) (UniProt P28222); details: Compound concentration 10.0 uM
[36] = target: 5-hydroxytryptamine receptor 1D (Homo sapiens) (UniProt P28221); details: Compound concentration 10.0 uM
[37] = target: T4, Sodium-dependent noradrenaline transporter; assay: GPCRScan assay: inhibition of NET; design: radioligand conc. used [nm] 1.3 – 5.0, parental cells stable HEK
[38] = target: Sigma intracellular receptor 2 (Homo sapiens) (UniProt Q5BJF2); details: Compound concentration 10.0 uM
Sigma intracellular receptor 2 (Homo sapiens), sequence (Q5BJF2 whole entry): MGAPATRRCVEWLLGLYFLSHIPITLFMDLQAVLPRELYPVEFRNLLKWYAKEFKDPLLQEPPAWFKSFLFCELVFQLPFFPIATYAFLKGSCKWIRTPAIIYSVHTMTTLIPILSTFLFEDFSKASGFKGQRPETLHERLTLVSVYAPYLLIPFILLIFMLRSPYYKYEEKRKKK

[39] = target: D(2) dopamine receptor (Homo sapiens) (UniProt P14416); details: Compound concentration 10.0 uM
[40] = target: Muscarinic acetylcholine receptor M4 (Homo sapiens) (UniProt P08173); details: Compound concentration 10.0 uM
[41] = target: T3, Delta-type opioid receptor; assay: GPCRScan assay: inhibition of DOR; design: radioligand conc. used [nm] 1.0 – 2.0, parental cells stable HEK
[42] = target: D(3) dopamine receptor (Homo sapiens) (UniProt P35462); details: Compound concentration 10.0 uM
[43] = target: Histamine H3 receptor (Homo sapiens) (UniProt Q9Y5N1); details: Compound concentration 10.0 uM
[44] = target: Muscarinic acetylcholine receptor M2 (Homo sapiens) (UniProt P08172); details: Compound concentration 10.0 uM
Muscarinic acetylcholine receptor M2 (Homo sapiens), sequence (P08172 whole entry): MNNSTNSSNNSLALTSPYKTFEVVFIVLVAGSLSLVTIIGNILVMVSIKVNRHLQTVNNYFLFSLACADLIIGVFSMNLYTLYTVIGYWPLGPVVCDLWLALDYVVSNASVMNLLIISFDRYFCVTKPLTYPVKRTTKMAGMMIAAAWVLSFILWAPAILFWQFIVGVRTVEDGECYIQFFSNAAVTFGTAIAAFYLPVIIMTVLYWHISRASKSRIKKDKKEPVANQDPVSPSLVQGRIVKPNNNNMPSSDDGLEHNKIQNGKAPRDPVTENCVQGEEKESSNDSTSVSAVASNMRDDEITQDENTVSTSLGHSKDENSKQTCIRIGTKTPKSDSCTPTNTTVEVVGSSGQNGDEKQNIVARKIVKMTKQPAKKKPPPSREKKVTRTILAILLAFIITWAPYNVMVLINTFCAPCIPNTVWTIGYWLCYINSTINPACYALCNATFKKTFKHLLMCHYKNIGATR

[45] = target: Alpha-2A adrenergic receptor (Homo sapiens) (UniProt P08913); details: Compound concentration 10.0 uM

T1 sequence (Q01959 whole entry): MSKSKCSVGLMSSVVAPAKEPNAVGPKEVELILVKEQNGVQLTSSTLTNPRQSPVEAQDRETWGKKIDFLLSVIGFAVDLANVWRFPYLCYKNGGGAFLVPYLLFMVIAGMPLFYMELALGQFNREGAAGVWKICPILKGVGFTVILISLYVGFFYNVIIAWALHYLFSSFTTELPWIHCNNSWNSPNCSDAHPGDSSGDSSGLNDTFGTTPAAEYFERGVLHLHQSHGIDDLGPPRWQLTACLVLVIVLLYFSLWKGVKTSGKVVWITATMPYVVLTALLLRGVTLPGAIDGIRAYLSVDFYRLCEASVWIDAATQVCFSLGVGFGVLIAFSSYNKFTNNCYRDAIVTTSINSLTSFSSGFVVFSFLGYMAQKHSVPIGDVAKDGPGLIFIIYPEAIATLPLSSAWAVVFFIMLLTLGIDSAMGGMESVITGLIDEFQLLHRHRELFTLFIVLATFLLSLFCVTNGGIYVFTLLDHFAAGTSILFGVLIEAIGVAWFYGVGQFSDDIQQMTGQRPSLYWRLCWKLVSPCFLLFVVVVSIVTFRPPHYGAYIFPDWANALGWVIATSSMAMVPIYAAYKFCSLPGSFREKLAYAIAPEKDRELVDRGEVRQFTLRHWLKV

## COCCOCCn1nc(C)c2c1CSCc1cc(n(C)n1)CCc1cc(c3ccc(F)cc3c1)OCCCn1c(C(=O)O)c(C)c3c-2c(Cl)ccc31
[1]
  inhibition: -3.65%
[2]
  inhibition: 57.7%
Rattus norvegicus
  inhibition: 11.8%
[3]
  inhibition: 7%
[4]
  inhibition: 10.8%
Mu-type opioid receptor
  inhibition: 10.4%
[5]
  inhibition: 1.09%
[6]
  inhibition: 54.5%
[7]
  inhibition: 10.6%
[8]
  inhibition: -1.43%
[9]
  inhibition: 11.6%
[10]; read-out: Ki
  Ki: 1.7 µM
[10]; read-out: pKi (converted)
  Ki: 1.58 µM
[11]; read-out: Ki
  Ki: 3.72 µM
[11]; read-out: pKi (converted)
  Ki: 3.55 µM
[12]
  inhibition: 34.7%
[13]
  inhibition: -4.41%
[14]
  inhibition: 78%
[15]
  inhibition: 58.9%
[16]
  inhibition: 36.6%
[17]
  inhibition: 3.35%
[18]
  inhibition: 76.5%
[19]
  inhibition: 7.75%
[20]
  inhibition: 51.7%
[21]
  inhibition: 19%
[22]
  inhibition: -0.92%
[23]
  inhibition: 1.89%
[24]
  inhibition: 14.2%
[25]
  inhibition: 2.15%
[26]
  Ki: 0.115 µM (not active)
[27]; read-out: Ki
  Ki: 2.47 µM
[27]; read-out: pKi (converted)
  Ki: 2.45 µM
[28]
  AC50: > 30 µM (not active)
[29]
  inhibition: 30.7%
[30]
  inhibition: 11.4%
[31]
  inhibition: -3.32%
[32]
  inhibition: 29.5%
[33]
  inhibition: 6.21%
[34]
  inhibition: 8.89%
[35]
  inhibition: 26%
[36]
  inhibition: 31.4%
[37]; read-out: Ki
  Ki: 2.88 µM
[37]; read-out: pKi (converted)
  Ki: 2.75 µM
[38]
  inhibition: 23.4%
[39]
  inhibition: -6.49%
[40]
  inhibition: -9.96%
[41]; read-out: Ki
  Ki: 3.23 µM
[41]; read-out: pKi (converted)
  Ki: 2.63 µM
[42]
  inhibition: 18.2%
[43]
  inhibition: -6.18%
[44]
  inhibition: 4.4%
[45]
  inhibition: 6.61%

Reference: ChEMBL document CHEMBL5303767, “Data for DCP probe JNJ-4355” (2023)
